The values below come from patent publication US20240076667A1, “APPLICATION OF ANTISENSE OLIGONUCLEOTIDE TARGETING PBX1 PROMOTER REGION G-QUADRUPLEX IN PREPARATION OF MEDICINE FOR TREATING MELANOMA” (JILIN UNIVERSITY, priority 2022, published 2024).

One series relates to PDCs. The experiment in a line: Colony forming assay, patient-derived tumor cells. It is filed as cell-based, human. On the procedure:
(§1) Colony forming assay: for the colony forming assay, A375 and B16-F10 cells are seeded on 6-well plates with the density of 500-1000 cells. After two weeks, staining is performed by using 1% crystal violet at room temperature, rinsing is performed with PBS and tap water, and the number of colonies is counted.
Preparation of patient-derived tumor cells: tumor tissues of PDXs are used in basic RPMI1640 medium (Gibco, USA. Free-FBS medium). Patient-derived tumor cells (PDC) are prepared from cryopreserved xenograft fragments using the tumor isolation kit (Miltenyi Biotec, Germany), following the tumor treatment solution. PDCs are cultured as described by Bruna and Shanker et al. (6,7). PDCs are used for colony forming assays.

The next series concerns melanoma cell line. The experiment in a line: Proliferation, migration and invasion of the melanoma cell line (summary statement). It is filed as cell-based. The source says:
The present invention detects the effect of PBX1-G4 on growth and lung metastasis of melanoma and discovers that the expression of PBX1 is positively correlated with the development of melanoma. The sequence of PBX1 is conserved in evolution and is same in mice and human beings. […] The identification of the present invention on the antisense oligonucleotide targeting the PBX1 promoter region G-quadruplex provides the new drug target and new treatment methods and ideas for development of the new generation of medicine for treating melanoma.

Series [1] concerns PBX1. The experiment in a line: PBX1 mRNA and protein levels by qRT-PCR and western blot in B16-F10 cells. It is filed as cell-based, mouse. Here is the method: (§2) RNA extraction and quantitative RT-PCR detection: total RNA is extracted from cultured cells by using TRIzol (Invitrogen, USA), then is converted into cDNA by SuperScript III First-Strand Synthesis SuperMix (Invitrogen, USA). qRT-PCR detection is performed by using SYBR Green®Mix (Invitrogen, USA) in ABI 7500 (Invitrogen, USA). A relative expression quantity of RNA is calculated by using a comparative CT method.
(§3) Immunoblotting: for protein analysis of a whole-cell lysate, cells are lysed with RIPA (CWBIO, Beijing, China) buffer solution. For tumors, liquid nitrogen is first used to pulverize tissues. Then, the lysate is generated on ice with the RIPA (CWBIO, Beijing, China) buffer solution for 20 minutes, and then centrifuged at 4° C., 13000 rpm for 15 minutes. Protein-containing supernatant is transferred to the fresh microcentrifuge tube, and stored at −20° C. (short-term storage) for subsequent use. The protein is quantified by using the BIO-RAD DC protein assay. The total proteins are electrophoresed on SDS-polyacrylamide gels. Then, the proteins are transferred to polyvinylidene difluoride (PVDF) membrane. After incubation with the primary antibody overnight on the shaker at 4° C., the membrane is washed 6 times (5 minutes each time) with TBS-T (Invitrogen, USA). Then, blots are incubated with horseradish peroxidase (IRP)-conjugated secondary antibodies for 60 minutes at RT on the plate shaker. The membrane is cleaned by TBS-T (6×5 minutes). Detection on immunoreactive bands is performed by using SuperSignalmWest Pico chemiluminescence substrate kit (Thermo Fisher Scientific, USA) and Western blotting detection system (BioRad, USA). GAPDH is used as the loading control for western blotting. The intensity levels of the bands are normalized to GAPDH.
(Real-time PCR tracks product formation cycle by cycle.)

The test system of series [2] is patient-derived melanoma xenograft (PDX). The experiment in a line: PDX model of melanoma in NCG mice. It is filed as in vivo. On the procedure: PDX model of melanoma: fresh tumor tissues are collected immediately after surgery, placed in RPMI 1640 medium containing penicillin/streptomycin (100 U/ml; 100 μg/ml), fungal zone (1 μg/ml) and Genta Mycin (50 μg/ml) (all from Gibco, USA) (4,5). According to the institutional review and the ethical guidelines for this study approved by the Ethics Committee of the Second Hospital of Jilin University, fresh tumor samples from patients suffering from melanoma are collected for transplantation with informed consent. The mice were kept and all procedures are performed under the approval and supervision of the Institutional Animal Care and Use Committee (IACUC) of the School of Public Health of Jilin University (Changchun, China). Necrotic tissues are excised before transplantation, and tumor tissues are minced to a size of 2×2×2 mm^3, and implanted subcutaneously in the flank of 6-week-old NCG male mice to generate first-generation (F1) PDX mice. Successfully transplanted tumor models are passaged and stored using standard methods. H&E staining is used to evaluate the morphology of patient tumor specimens and xenografts of established PDX models. Treatment with ASO Scr or ASO (intravenous injection, 20 mg/kg) is initiated when the tumor volume of the mice reached 220-280 mm^3. Tumor growth and body weight measurements are performed. Tumors are dissected at the end of treatment for further processing for RNA, protein and histological analysis.
Control:mG*mT*mC*mC*mA*mC*mA*mA*mA*mC*mA*mC*mA*mA*mC*mT*mC* mC*mT*mG*). […] This example also establishes short-term cultures of patient-derived melanoma xenograft (PDX)-derived tumor cells (PDCs) (FIG. 5D). […] To further expand the analysis, this embodiment establishes the PDX model of melanoma, and […] is administered intravenously (intravenous injection) every two days for 21 days.

The test system of a further series is B16-F10 cells. Kind of series: In vivo tumor metastasis assay, B16-F10 tail vein injection. The arrangement: species or system mice. Conditions: in vivo studies, summary statement. Here is the method:
In vivo tumor metastasis assay: 2×10^5 B16-F10 cells are injected into the tail vein of tail vein tumor. According to solutions formulated by the NCI Animal Care and Use Committee, metastatic endpoints are determined for each experiment by maximal primary tumor burden and/or appearance of moribund mice in all treatment groups. PDS (5 mg/kg) is administered twice a day, for 16 consecutive days.
Bioluminescent tumor cell tracking: in vivo whole-animal imaging, anesthetized mice are injected intraperitoneally with 3 mg of d-luciferin (MCE, USA). Luminescence data is collected on an IVIS system (Perkin Elmer, USA). For live tissue imaging, tissues are perfused with PBS, harvested, and incubated in PBS with 1 μg/ml-1d-luciferin. Data analysis is performed using an IVIS Image software package.

For series [3], the system named is PBX1. Kind of series: PBX1 mRNA and protein levels by qRT-PCR and western blot in A375 cells. It counts as cell-based, human. On the procedure:
as §2, §3

A further series concerns PBX1 transcript. The experiment in a line: BG4 RNA immunoprecipitation (RIP) followed by qRT-PCR in A375 cells. It is filed as cell-based, human. Here is the method:
FIGS. 2A-2G are features formed by dG1 and rG1 in vitro and in cells. In (FIG. 2A), Left: CD spectra of WT and Mut dG1, and Right: CD spectra of WT and Mut rG1. CD is circular dichroism. In (FIG. 2B), Left: gel mobility assay of WT and Mut dG1, and Right: gel mobility assay of WT and Mut rG1. In (FIG. 2C), under specified conditions, fluorescence-on assay of NMM in absence of presence of dG1 or rG1, and their G/A mutant. In (FIG. 2D), the occupancy of BG4 in the PBX1 promoter region is measured in A375 cells by BG4 chromatin immunoprecipitation (ChIP), followed by qRT-PCR. In (FIG. 2E), RNA immunoprecipitation (RIP) detection is performed to show the association between BG4 and the PBX1 transcript in A375 cells, followed by qRT-PCR. In (FIG. 2F), the occupancy of BG4 in the PBX1 promoter region is measured, by the BG4 chip, in A375 cells treated with or without PDS and TMPyP4, followed by qRT-PCR. […] SEM represents the standard error of mean. *P< 0.05, **P< 0.01***P< 0.001.
In this embodiment, several methods are further employed to verify the formation of dG1 and rG1. First, circular dichroism (CD) is used to examine the molar ellipticity of dG1 and rG1 sequences (33 nt) and mutants thereof, and the mutants are designed to eliminate G4 formation. […] N-methyl mesoporphyrin IX (NMN) is the well-known fluorescent G4-specific ligand that can be used for studies of G4 formation in vitro. Both dG1 and rG1 are found to enhance the fluorescence of N N (FIG. 2C). In addition, in this embodiment, chromatin immunoprecipitation (ChIP) and RNA immunoprecipitation (RIP) detection are performed in A375 cells using the well-known G4-specific antibody BG4. […] In summary, dG1 and rG1 can fold stable G4 structures in vitro and in cells. […] Therefore, the ability of these G4-specific ligands to interact with PBX1 G4s is investigated next.
Control:mG*mT*mC*mC*mA*mC*mA*mA*mA*mC*mA*mC*mA*mA*mC*mT*mC* mC*mT*mG*). […] This example also establishes short-term cultures of patient-derived melanoma xenograft (PDX)-derived tumor cells (PDCs) (FIG. 5D). […]

The subject of the next series is A375 cells. The experiment in a line: Colony forming assay, A375. It is filed as cell-based, human. Here is the method:
as §1

The mark [4] stands for this setting: western blot, normalized to GAPDH.
The mark [5] stands for this setting: PDX, intravenous injection 20 mg/kg every two days for 21 days, vs PBX1 ASO scramble.

For “ASO: ASO specific for the complementary sequence of rG1 in the 5′ UTR of PBX1: mG*mG*mG*G*T*mT*mG*mC*mG*mG*mG*mG*mT*mG*mA*G*G*G*T*mG* (antisense GGGGTTGCGGGGTGAGGGTG; chemistry not given here)”, the colony formation ability entry in the series on PDCs is “decreases”. In the series with melanoma cell line, the “invasion capability of the melanoma cell line” value is reported as “obviously inhibits”, the “migration capability of the melanoma cell line” value is listed as “obviously inhibits” and the “proliferation capability of the melanoma cell line” value is recorded as “obviously inhibits”. Besides, the “mRNA level of PBX1” value in the series with PBX1 [1] (qRT-PCR) is reported as “effectively reduce”. Further, the “protein level of PBX1” value in the series on PBX1 [1] (setting [4]) is “effectively reduce”. Further, the “expression of proliferation marker Ki67 in tumors” value in series [2] (PDX) is listed as “significant downregulation”. In series [2] (setting [5]), the tumor growth entry is on record as “significant reduction” and the tumor weight entry was “significant reduction”. Also, in series [2] (PDX, qRT-PCR and IHC staining), the “expression of PBX1 in tumors” value is given as “significant downregulation”. Also, the growth of melanoma entry in series [2] (in vivo studies, summary statement) is on record as “almost completely inhibits”. The “lung metastasis of melanoma” value in the series on B16-F10 cells is on record as “almost completely inhibits”. Further, the “mRNA level of PBX1” value in the series on PBX1 [3] (qRT-PCR) was “effectively reduce”. In the series with PBX1 [3] (setting [4]), the “protein level of PBX1” value is “effectively reduce”. In addition, in the series on PBX1 transcript, the “PBX1 transcript pulled down by BG4” value is listed as “increases”. Also, in the series with A375 cells, the colony formation entry was “decreases”.
